Results from patent publication US20230085307A1, “PYRIDAZINONE COMPOUND AND HERBICIDE” (NISSAN CHEMICAL CORPORATION, priority 2019, published 2023).

Key:
[1] = tested on: southern crabgrass; experiment: Test Example 4: herbicidal effect by soil treatment (Table 19, symbol F); assay type: in vivo, southern crabgrass (Digitaria ciliaris); details: amount of applied herbicide 320 g/ha
Summary of the method: (§1)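 Pre-emergence style soil spray: seeds under ~1.5 cm sterilized diluvial soil received a uniform coat of emulsion diluted to the predetermined herbicide amount. Greenhouse 25–30° C; readout at week three on previously defined criteria.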

[2] = tested on: southern crabgrass; experiment: Test Example 5: herbicidal effect by foliage application, plastic box (Table 20, symbol F); assay type: in vivo, southern crabgrass (Digitaria ciliaris); details: 320 g/ha, foliage application after 14-day growth, evaluated three weeks after application
Summary of the method: (§2)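 Plants were sown into sterilized diluvial soil under about 1.5 cm cover and kept in a greenhouse at 25° C. to 30° C. Fourteen days on, foliage received an even spray of the diluted emulsion. Herbicidal or crop effect was judged three weeks afterwards.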

[3] = tested on: chickweed; experiment: Test Example 4: herbicidal effect by soil treatment (Table 19, symbol P); assay type: in vivo, common chickweed (Stellaria media); details: amount of applied herbicide 320 g/ha
Summary of the method: as §1

[4] = tested on: green foxtail; experiment: Test Example 5: herbicidal effect by foliage application, plastic box (Table 20, symbol G); assay type: in vivo, green foxtail (Setaria viridis); details: 320 g/ha, foliage application after 14-day growth, evaluated three weeks after application
Summary of the method: as §2

[5] = tested on: barnyard grass; experiment: Test Example 4: herbicidal effect by soil treatment (Table 19, symbol H); assay type: in vivo, barnyard grass (Echinochloa crus-galli); details: amount of applied herbicide 320 g/ha
Summary of the method: as §1

[6] = tested on: blackgrass; experiment: Test Example 5: herbicidal effect by foliage application, plastic box (Table 20, symbol J); assay type: in vivo, blackgrass (Alopecurus myosuroides); details: 320 g/ha, foliage application after 14-day growth, evaluated three weeks after application
Summary of the method: as §2

[7] = tested on: barnyard grass; experiment: Test Example 5: herbicidal effect by foliage application, plastic box (Table 20, symbol H); assay type: in vivo, barnyard grass (Echinochloa crus-galli); details: 320 g/ha, foliage application after 14-day growth, evaluated three weeks after application
Summary of the method: as §2

[8] = tested on: lambsquarters; experiment: Test Example 5: herbicidal effect by foliage application, plastic box (Table 20, symbol O); assay type: in vivo, lambsquarters (Chenopodium album); details: 320 g/ha, foliage application after 14-day growth, evaluated three weeks after application
Summary of the method: as §2

[9] = tested on: velvetleaf; experiment: Test Example 5: herbicidal effect by foliage application, plastic box (Table 20, symbol M); assay type: in vivo, velvetleaf (Abutilon theophrasti); details: 320 g/ha, foliage application after 14-day growth, evaluated three weeks after application
Summary of the method: as §2

[10] = tested on: wild oat; experiment: Test Example 4: herbicidal effect by soil treatment (Table 19, symbol I); assay type: in vivo, wild oat (Avena fatua); details: amount of applied herbicide 320 g/ha
Summary of the method: as §1

[11] = tested on: windgrass; experiment: Test Example 5: herbicidal effect by foliage application, plastic box (Table 20, symbol L); assay type: in vivo, windgrass (Apera spica-venti); details: 320 g/ha, foliage application after 14-day growth, evaluated three weeks after application
Summary of the method: as §2

[12] = tested on: velvetleaf; experiment: Test Example 4: herbicidal effect by soil treatment (Table 19, symbol M); assay type: in vivo, velvetleaf (Abutilon theophrasti); details: amount of applied herbicide 320 g/ha
Summary of the method: as §1

[13] = tested on: Italian ryegrass; experiment: Test Example 4: herbicidal effect by soil treatment (Table 19, symbol K); assay type: in vivo, Italian ryegrass (Lolium multiflorum); details: amount of applied herbicide 320 g/ha
Summary of the method: as §1

[14] = tested on: Chinese sprangletop; experiment: Test Example 3: herbicidal effect by foliage application, Wagner pot (Table 18, symbol D); assay type: in vivo, chinese sprangletop (Leptochloa chinensis); details: 320 g/ha
Summary of the method: (§3)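 Plants were sown in alluvial soil held under 0.1–0.5 cm standing water and grown 14 days in a greenhouse at 25–30 °C. An emulsifiable formulation, water-diluted to the set dose, was then sprayed onto the foliage, and effects were scored three weeks later using previously defined criteria.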

[15] = tested on: persian speedwell; experiment: Test Example 5: herbicidal effect by foliage application, plastic box (Table 20, symbol R); assay type: in vivo, Persian speedwell (Veronica persica); details: 320 g/ha, foliage application after 14-day growth, evaluated three weeks after application
Summary of the method: as §2

[16] = tested on: windgrass; experiment: Test Example 4: herbicidal effect by soil treatment (Table 19, symbol L); assay type: in vivo, windgrass (Apera spica-venti); details: amount of applied herbicide 320 g/ha
Summary of the method: as §1

[17] = tested on: green foxtail; experiment: Test Example 4: herbicidal effect by soil treatment (Table 19, symbol G); assay type: in vivo, green foxtail (Setaria viridis); details: amount of applied herbicide 320 g/ha
Summary of the method: as §1

[18] = tested on: persian speedwell; experiment: Test Example 4: herbicidal effect by soil treatment (Table 19, symbol R); assay type: in vivo, Persian speedwell (Veronica persica); details: amount of applied herbicide 320 g/ha
Summary of the method: as §1

[19] = tested on: redroot pigweed; experiment: Test Example 5: herbicidal effect by foliage application, plastic box (Table 20, symbol N); assay type: in vivo, redroot pigweed (Amaranthus retroflexus); details: 320 g/ha, foliage application after 14-day growth, evaluated three weeks after application
Summary of the method: as §2

[20] = tested on: Italian ryegrass; experiment: Test Example 5: herbicidal effect by foliage application, plastic box (Table 20, symbol K); assay type: in vivo, Italian ryegrass (Lolium multiflorum); details: 320 g/ha, foliage application after 14-day growth, evaluated three weeks after application
Summary of the method: as §2

[21] = tested on: barnyard grass; experiment: Test Example 3: herbicidal effect by foliage application, Wagner pot (Table 18, symbol H); assay type: in vivo, barnyard grass (Echinochloa crus-galli); details: 320 g/ha
Summary of the method: as §3

[22] = tested on: wild oat; experiment: Test Example 5: herbicidal effect by foliage application, plastic box (Table 20, symbol I); assay type: in vivo, wild oat (Avena fatua); details: 320 g/ha, foliage application after 14-day growth, evaluated three weeks after application
Summary of the method: as §2

[23] = tested on: lambsquarters; experiment: Test Example 4: herbicidal effect by soil treatment (Table 19, symbol O); assay type: in vivo, lambsquarters (Chenopodium album); details: amount of applied herbicide 320 g/ha
Summary of the method: as §1

[24] = tested on: chickweed; experiment: Test Example 5: herbicidal effect by foliage application, plastic box (Table 20, symbol P); assay type: in vivo, common chickweed (Stellaria media); details: 320 g/ha, foliage application after 14-day growth, evaluated three weeks after application
Summary of the method: as §2

[25] = tested on: blackgrass; experiment: Test Example 4: herbicidal effect by soil treatment (Table 19, symbol J); assay type: in vivo, blackgrass (Alopecurus myosuroides); details: amount of applied herbicide 320 g/ha
Summary of the method: as §1

[26] = tested on: rice flat sedge; experiment: Test Example 3: herbicidal effect by foliage application, Wagner pot (Table 18, symbol E); assay type: in vivo, rice flat sedge (Cyperus iria); details: 320 g/ha
Summary of the method: as §3

[27] = tested on: redroot pigweed; experiment: Test Example 4: herbicidal effect by soil treatment (Table 19, symbol N); assay type: in vivo, redroot pigweed (Amaranthus retroflexus); details: amount of applied herbicide 320 g/ha
Summary of the method: as §1

| SMILES | Herbicidal effect by soil treatment, F: southern crabgrass [1] | herbicidal effect on F: southern crabgrass (evaluation grade 0-5) [2] | Herbicidal effect by soil treatment, P: chickweed [3] | herbicidal effect on G: green foxtail (evaluation grade 0-5) [4] | Herbicidal effect by soil treatment, H: barnyard grass [5] | herbicidal effect on J: blackgrass (evaluation grade 0-5) [6] | herbicidal effect on H: barnyard grass (evaluation grade 0-5) [7] | herbicidal effect on O: lambsquarters (evaluation grade 0-5) [8] | herbicidal effect on M: velvetleaf (evaluation grade 0-5) [9] | Herbicidal effect by soil treatment, I: wild oat [10] | herbicidal effect on L: windgrass (evaluation grade 0-5) [11] | Herbicidal effect by soil treatment, M: velvetleaf [12] | Herbicidal effect by soil treatment, K: Italian ryegrass [13] | herbicidal effect on Chinese sprangletop (D) [14] | herbicidal effect on R: persian speedwell (evaluation grade 0-5) [15] | Herbicidal effect by soil treatment, L: windgrass [16] | Herbicidal effect by soil treatment, G: green foxtail [17] | Herbicidal effect by soil treatment, R: persian speedwell [18] | herbicidal effect on N: redroot pigweed (evaluation grade 0-5) [19] | herbicidal effect on K: Italian ryegrass (evaluation grade 0-5) [20] | further results |
| --- | --- | --- | --- | --- | --- | --- | --- | --- | --- | --- | --- | --- | --- | --- | --- | --- | --- | --- | --- | --- | --- |
| CCCC(=O)Oc1c(C)nn(C)c(=O)c1-c1c(-c2ccc(F)cc2OC)sc2c(F)cccc12 [4-012] | 0 (Herbicidal rate of 5% or less (almost no effect)) | 2 (Herbicidal rate of 20% or more and less than 40%) | 0 (Herbicidal rate of 5% or less (almost no effect)) | 5 (Herbicidal rate of 90% or more (almost completely withered)) | 0 (Herbicidal rate of 5% or less (almost no effect)) | 0 (Herbicidal rate of 5% or less (almost no effect)) | 3 (Herbicidal rate of 40% or more and less than 70%) | 2 (Herbicidal rate of 20% or more and less than 40%) | 3 (Herbicidal rate of 40% or more and less than 70%) | 0 (Herbicidal rate of 5% or less (almost no effect)) | 1 (Herbicidal rate of 5% or more and less than 20%) | 1 (Herbicidal rate of 5% or more and less than 20%) | 0 (Herbicidal rate of 5% or less (almost no effect)) | 3 (Herbicidal rate of 40% or more and less than 70%) | 4 (Herbicidal rate of 70% or more and less than 90%) | 0 (Herbicidal rate of 5% or less (almost no effect)) | 0 (Herbicidal rate of 5% or less (almost no effect)) | 0 (Herbicidal rate of 5% or less (almost no effect)) | 4 (Herbicidal rate of 70% or more and less than 90%) | 3 (Herbicidal rate of 40% or more and less than 70%) | herbicidal effect on barnyard grass (H) [21]: 5 (Herbicidal rate of 90% or more (almost completely withered)); herbicidal effect on I: wild oat (evaluation grade 0-5) [22]: 0 (Herbicidal rate of 5% or less (almost no effect)); Herbicidal effect by soil treatment, O: lambsquarters [23]: 1 (Herbicidal rate of 5% or more and less than 20%); herbicidal effect on P: chickweed (evaluation grade 0-5) [24]: 5 (Herbicidal rate of 90% or more (almost completely withered)); Herbicidal effect by soil treatment, J: blackgrass [25]: 0 (Herbicidal rate of 5% or less (almost no effect)); herbicidal effect on rice flat sedge (E) [26]: 5 (Herbicidal rate of 90% or more (almost completely withered)); Herbicidal effect by soil treatment, N: redroot pigweed [27]: 3 (Herbicidal rate of 40% or more and less than 70%) |
| COc1ccccc1-c1sc2c(Cl)cccc2c1-c1c(O)c(C)nn(C)c1=O [4-021] | 0 (Herbicidal rate of 5% or less (almost no effect)) | 1 (Herbicidal rate of 5% or more and less than 20%) | 4 (Herbicidal rate of 70% or more and less than 90%) | 4 (Herbicidal rate of 70% or more and less than 90%) | 0 (Herbicidal rate of 5% or less (almost no effect)) | 0 (Herbicidal rate of 5% or less (almost no effect)) | 3 (Herbicidal rate of 40% or more and less than 70%) | 2 (Herbicidal rate of 20% or more and less than 40%) | 2 (Herbicidal rate of 20% or more and less than 40%) | 0 (Herbicidal rate of 5% or less (almost no effect)) | 5 (Herbicidal rate of 90% or more (almost completely withered)) | 0 (Herbicidal rate of 5% or less (almost no effect)) | 0 (Herbicidal rate of 5% or less (almost no effect)) | 4 (Herbicidal rate of 70% or more and less than 90%) | 4 (Herbicidal rate of 70% or more and less than 90%) | 0 (Herbicidal rate of 5% or less (almost no effect)) | 0 (Herbicidal rate of 5% or less (almost no effect)) | 3 (Herbicidal rate of 40% or more and less than 70%) | 1 (Herbicidal rate of 5% or more and less than 20%) | 5 (Herbicidal rate of 90% or more (almost completely withered)) | herbicidal effect on barnyard grass (H) [21]: 4 (Herbicidal rate of 70% or more and less than 90%); herbicidal effect on I: wild oat (evaluation grade 0-5) [22]: 0 (Herbicidal rate of 5% or less (almost no effect)); Herbicidal effect by soil treatment, O: lambsquarters [23]: 1 (Herbicidal rate of 5% or more and less than 20%); herbicidal effect on P: chickweed (evaluation grade 0-5) [24]: 5 (Herbicidal rate of 90% or more (almost completely withered)); Herbicidal effect by soil treatment, J: blackgrass [25]: 0 (Herbicidal rate of 5% or less (almost no effect)); herbicidal effect on rice flat sedge (E) [26]: 5 (Herbicidal rate of 90% or more (almost completely withered)); Herbicidal effect by soil treatment, N: redroot pigweed [27]: 2 (Herbicidal rate of 20% or more and less than 40%) |
